Values of other authors as cited in patent US20250231185A1, “Coronavirus T Cell Epitopes, Megapools and Uses Thereof” (La Jolla Institute for Immunology, priority 2021, published 2025).
Like-named read-outs stand apart in the source and are kept apart here.

System: CD8+ T cells
Details: cited from earlier work
[1] = CD8R (D) megapool epitopes, dominant = recognized by 3 or more donors/different studies
[2] = SARS-CoV-2-derived CD8 epitopes, dominant = recognized by 3 or more donors/different studies
[3] = T cell subset (CD4 or CD8) recognizing the SARS-CoV-2-derived epitope
[4] = T cell type (CD4 or CD8) recognizing the SARS-CoV-2 epitope
[5] = SARS-CoV-2 Ag S, T cell type recognizing the epitope
[6] = CD8RE megapool peptides (non-spike SARS-CoV-2 antigens), dominant epitope Yes/No

## 1792 (FTYASALWEI) [compound 1792]
[1]
  Dominant: Yes (more dominant epitopes are defined by being recognized by 3 or more donors/different studies)

## 1720 (RQLLFVVEV) [compound 1720]
[1]
  Dominant: Yes (more dominant epitopes are defined by being recognized by 3 or more donors/different studies)

## 504 (GTGPEAGLPY) [compound 504]
[2]
  Dominant: Yes (more dominant epitopes are defined by being recognized by 3 or more donors/different studies)
[3]
  Restriction: CD8

## 1013 (LTNDNTSRYW) [compound 1013]
[4]
  Restriction: CD8

## 1736 (KLNVGDYFV) [compound 1736]
[1]
  Dominant: Yes (more dominant epitopes are defined by being recognized by 3 or more donors/different studies)

## 1687 (KMKDLSPRW) [compound 1687]
[1]
  Dominant: Yes (more dominant epitopes are defined by being recognized by 3 or more donors/different studies)

## 1059 (YKIEELFYSY) [compound 1059]
[4]
  Restriction: CD8

## 691 (YYKKDNSY) [compound 691]
[3]
  Restriction: CD8

## 1337 (QLTPTWRVY) [compound 1337]
[5]
  Restriction: CD8

## 636 (AIVSTIQRKYK) [compound 636]
[3]
  Restriction: CD8

## 2950 (TMADLVYAL) [compound 2950]
[6]
  Dominant: Yes (more dominant epitopes are defined by being recognized by 3 or more donors/different studies)

## 3020 (FLLPSLATV) [compound 3020]
[6]
  Dominant: Yes (more dominant epitopes are defined by being recognized by 3 or more donors/different studies)

## 554 (KKQQTVTLL) [compound 554]
[3]
  Restriction: CD8

## 1044 (AVASKILGL) [compound 1044]
[4]
  Restriction: CD8

## 3047 (RARSVSPKL) [compound 3047]
[6]
  Dominant: Yes (more dominant epitopes are defined by being recognized by 3 or more donors/different studies)

## 683 (ITDVFYKENSY) [compound 683]
[2]
  Dominant: Yes (more dominant epitopes are defined by being recognized by 3 or more donors/different studies)
[3]
  Restriction: CD8

## 612 (LLSAGIFGA) [compound 612]
[3]
  Restriction: CD8

## 517 (SSRGTSPAR) [compound 517]
[3]
  Restriction: CD8

## 565 (TFNGECPNF) [compound 565]
[3]
  Restriction: CD8

## 558 (VLSEARQHL) [compound 558]
[2]
  Dominant: Yes (more dominant epitopes are defined by being recognized by 3 or more donors/different studies)
[3]
  Restriction: CD8

## 630 (TTYPGQGLNGY) [compound 630]
[3]
  Restriction: CD8

## 1308 (KPFERDISTEI) [compound 1308]
[5]
  Restriction: CD8

## 2948 (DLKGKYVQI) [compound 2948]
[6]
  Dominant: Yes (more dominant epitopes are defined by being recognized by 3 or more donors/different studies)

## 556 (AADLDDFSKQL) [compound 556]
[3]
  Restriction: CD8

## 2904 (KLLEQWNLV) [compound 2904]
[6]
  Dominant: Yes (more dominant epitopes are defined by being recognized by 3 or more donors/different studies)

## 946 (STVFPPTSF) [compound 946]
[4]
  Restriction: CD8

## 1040 (VVNARLRAK) [compound 1040]
[4]
  Restriction: CD8

## 1682 (NTASWFTAL) [compound 1682]
[1]
  Dominant: Yes (more dominant epitopes are defined by being recognized by 3 or more donors/different studies)

## 698 (DVVAIDYKHY) [compound 698]
[3]
  Restriction: CD8

## 1781 (GTDLEGNFY) [compound 1781]
[1]
  Dominant: Yes (more dominant epitopes are defined by being recognized by 3 or more donors/different studies)

## 924 (FDIYNDKVAGF) [compound 924]
[4]
  Restriction: CD8

## 1004 (VYLPYPDPSRI) [compound 1004]
[4]
  Restriction: CD8

## 997 (LRKHFSMMI) [compound 997]
[4]
  Restriction: CD8

## 1338 (RVYSTGSNV) [compound 1338]
[5]
  Restriction: CD8

## 928 (YFVVKRHTF) [compound 928]
[4]
  Restriction: CD8

## 1688 (LSPRWYFYYL) [compound 1688]
[1]
  Dominant: Yes (more dominant epitopes are defined by being recognized by 3 or more donors/different studies)

## 1075 (GRVDGQVDL) [compound 1075]
[4]
  Restriction: CD8

## 1307 (KSNLKPFER) [compound 1307]
[5]
  Restriction: CD8

## 603 (TIEVNSFSGY) [compound 603]
[3]
  Restriction: CD8

## 1468 (VLKGVKLHY) [compound 1468]
[5]
  Restriction: CD8

## 538 (ASAFFGMSR) [compound 538]
[2]
  Dominant: Yes (more dominant epitopes are defined by being recognized by 3 or more donors/different studies)
[3]
  Restriction: CD8

## 1336 (IHADQLTPTW) [compound 1336]
[5]
  Restriction: CD8

## 2933 (KPRQKRTAT) [compound 2933]
[6]
  Dominant: Yes (more dominant epitopes are defined by being recognized by 3 or more donors/different studies)

## 2989 (GVAMPNLYK) [compound 2989]
[6]
  Dominant: Yes (more dominant epitopes are defined by being recognized by 3 or more donors/different studies)

## 934 (VENPDILRV) [compound 934]
[4]
  Restriction: CD8

## 508 (IIWVATEGA) [compound 508]
[3]
  Restriction: CD8

## 1006 (YLPYPDPSRIL) [compound 1006]
[4]
  Restriction: CD8

## 1383 (GLTVLPPLL) [compound 1383]
[5]
  Restriction: CD8

## 1734 (VVYRGTTTYK) [compound 1734]
[1]
  Dominant: Yes (more dominant epitopes are defined by being recognized by 3 or more donors/different studies)

## 3035 (MDLFMRIFTI) [compound 3035]
[6]
  Dominant: Yes (more dominant epitopes are defined by being recognized by 3 or more donors/different studies)

## 3039 (ALSKGVHFV) [compound 3039]
[6]
  Dominant: Yes (more dominant epitopes are defined by being recognized by 3 or more donors/different studies)

## 1467 (EPVLKGVKL) [compound 1467]
[5]
  Restriction: CD8

## 1038 (IPARARVECF) [compound 1038]
[4]
  Restriction: CD8

## 3001 (SAPPAQYEL) [compound 3001]
[6]
  Dominant: Yes (more dominant epitopes are defined by being recognized by 3 or more donors/different studies)

## 1787 (KLKDCVMYA) [compound 1787]
[1]
  Dominant: Yes (more dominant epitopes are defined by being recognized by 3 or more donors/different studies)

## 917 (YFIKGLNNL) [compound 917]
[4]
  Restriction: CD8

## 1667 (YVYSRVKNL) [compound 1667]
[1]
  Dominant: Yes (more dominant epitopes are defined by being recognized by 3 or more donors/different studies)

## 647 (HLDGEVITF) [compound 647]
[3]
  Restriction: CD8

## 1001 (LVKQGDDYVY) [compound 1001]
[4]
  Restriction: CD8

## 506 (LPYGANKDGI) [compound 506]
[3]
  Restriction: CD8

## 1785 (FLLPSLATV) [compound 1785]
[1]
  Dominant: Yes (more dominant epitopes are defined by being recognized by 3 or more donors/different studies)

## 2996 (FGDDTVIEV) [compound 2996]
[6]
  Dominant: Yes (more dominant epitopes are defined by being recognized by 3 or more donors/different studies)

## 2963 (LYLQYIRKL) [compound 2963]
[6]
  Dominant: Yes (more dominant epitopes are defined by being recognized by 3 or more donors/different studies)

## 1068 (YNLWNTFTRL) [compound 1068]
[4]
  Restriction: CD8

## 631 (KQEILGTVSW) [compound 631]
[3]
  Restriction: CD8

## 976 (SAKNRARTV) [compound 976]
[4]
  Restriction: CD8

## 2977 (TYACWHHSI) [compound 2977]
[6]
  Dominant: Yes (more dominant epitopes are defined by being recognized by 3 or more donors/different studies)

## 2926 (ATEGALNTPK) [compound 2926]
[6]
  Dominant: Yes (more dominant epitopes are defined by being recognized by 3 or more donors/different studies)

## 1081 (LLLDDFVEI) [compound 1081]
[4]
  Restriction: CD8

## 918 (VPANSTVL) [compound 918]
[4]
  Restriction: CD8

## 1715 (TMADLVYAL) [compound 1715]
[1]
  Dominant: Yes (more dominant epitopes are defined by being recognized by 3 or more donors/different studies)

## 1014 (NTSRYWEPEFY) [compound 1014]
[4]
  Restriction: CD8

## 1329 (DAVRDPQTL) [compound 1329]
[5]
  Restriction: CD8

## 1382 (ADAGFIKQY) [compound 1382]
[5]
  Restriction: CD8

## 3034 (VTDTPKGPK) [compound 3034]
[6]
  Dominant: Yes (more dominant epitopes are defined by being recognized by 3 or more donors/different studies)

## 1028 (YRGTTTYKL) [compound 1028]
[4]
  Restriction: CD8

## 1721 (VVDKYFDCY) [compound 1721]
[1]
  Dominant: Yes (more dominant epitopes are defined by being recognized by 3 or more donors/different studies)

## 2931 (LLLDRLNQL) [compound 2931]
[6]
  Dominant: Yes (more dominant epitopes are defined by being recognized by 3 or more donors/different studies)

## 1034 (YQKVGMQKY) [compound 1034]
[4]
  Restriction: CD8

## 955 (QTVKPGNFNK) [compound 955]
[4]
  Restriction: CD8

## 1797 (CTDDNALAYY) [compound 1797]
[1]
  Dominant: Yes (more dominant epitopes are defined by being recognized by 3 or more donors/different studies)

## 1784 (SAFAMMFVK) [compound 1784]
[1]
  Dominant: Yes (more dominant epitopes are defined by being recognized by 3 or more donors/different studies)

## 500 (MKDLSPRWY) [compound 500]
[3]
  Restriction: CD8

## 1768 (ASMPTTIAK) [compound 1768]
[1]
  Dominant: Yes (more dominant epitopes are defined by being recognized by 3 or more donors/different studies)

## 1713 (DLKGKYVQI) [compound 1713]
[1]
  Dominant: Yes (more dominant epitopes are defined by being recognized by 3 or more donors/different studies)

## 2923 (LSPRWYFYYL) [compound 2923]
[6]
  Dominant: Yes (more dominant epitopes are defined by being recognized by 3 or more donors/different studies)

## 520 (LLLDRLNQL) [compound 520]
[2]
  Dominant: Yes (more dominant epitopes are defined by being recognized by 3 or more donors/different studies)
[3]
  Restriction: CD8
